pIC50: −log10 of the molar value. Where a name gives a salt, the structure may show the parent alone. Read-outs that look alike come from different tables or passages of the source.

Here are results for 17 compounds from patent US20190292167A1, “HETEROAROMATIC COMPOUNDS USEFUL FOR THE TREATMENT OF PROLIFERATIVE DISEASES” (Syros Pharmaceuticals, Inc., priority 2013, published 2019).

One test deals with T1, CDK7 (Homo sapiens, UniProt P50613).
T1 construct: purchased Life Technologies (Adapta kinase assay service)
As to the kind of experiment: Adapta kinase assay (Life Technologies) against CDK7, co-factors cyclin H and MNAT1. Format: biochemical. The settings on record: read-out: CDK7 Inhibition. The method, then: Compounds of the invention were assayed for activity against CDK7 at Life Technologies™ (Grand Island, N.Y.) using their commercially available Adapta® kinase assay services. […] Details of the assay, including the substrate used for CDK7 kinase, are available on the Life Technologies web site (http://www.lifetechnologies.com/us/en/homellife-science/drug-discovery/target-and-lead-identification-and-validation/kinasebiology/kinase-activity-assays.html).
The co-factors used for the assay were cyclin H and MNAT1.

A further test has as its system Jurkat. The test is described as follows: Inhibition of cell proliferation, CellTiter-Glo, 72 hour. Type of test: cell-based. The settings on record: Blood cancer cell line, 72 hour, read-out: Inhibition of Proliferation of Jurkat Cells. Here is the method: The following cancer cell lines were tested with the media conditions indicated: […]

T1 sequence (P50613 whole entry): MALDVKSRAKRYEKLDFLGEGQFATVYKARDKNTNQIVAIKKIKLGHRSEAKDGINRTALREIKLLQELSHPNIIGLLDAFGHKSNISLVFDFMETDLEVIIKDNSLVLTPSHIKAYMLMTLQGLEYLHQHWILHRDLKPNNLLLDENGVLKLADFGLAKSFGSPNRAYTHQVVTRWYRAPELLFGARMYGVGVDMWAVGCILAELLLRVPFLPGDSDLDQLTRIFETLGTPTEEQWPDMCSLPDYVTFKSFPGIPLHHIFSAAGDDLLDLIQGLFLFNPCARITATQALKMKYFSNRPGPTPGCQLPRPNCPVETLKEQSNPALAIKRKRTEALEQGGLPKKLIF
T1 sequence (P51946 whole entry partner): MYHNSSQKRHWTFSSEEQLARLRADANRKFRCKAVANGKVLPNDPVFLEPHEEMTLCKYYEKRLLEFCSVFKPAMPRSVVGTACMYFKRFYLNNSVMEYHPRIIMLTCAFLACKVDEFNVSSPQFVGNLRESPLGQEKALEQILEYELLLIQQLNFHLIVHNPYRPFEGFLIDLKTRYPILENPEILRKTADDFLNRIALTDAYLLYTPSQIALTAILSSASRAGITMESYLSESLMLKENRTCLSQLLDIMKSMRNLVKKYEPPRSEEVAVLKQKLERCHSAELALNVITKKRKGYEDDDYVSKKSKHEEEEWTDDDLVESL
T1 sequence (P51948 whole entry partner): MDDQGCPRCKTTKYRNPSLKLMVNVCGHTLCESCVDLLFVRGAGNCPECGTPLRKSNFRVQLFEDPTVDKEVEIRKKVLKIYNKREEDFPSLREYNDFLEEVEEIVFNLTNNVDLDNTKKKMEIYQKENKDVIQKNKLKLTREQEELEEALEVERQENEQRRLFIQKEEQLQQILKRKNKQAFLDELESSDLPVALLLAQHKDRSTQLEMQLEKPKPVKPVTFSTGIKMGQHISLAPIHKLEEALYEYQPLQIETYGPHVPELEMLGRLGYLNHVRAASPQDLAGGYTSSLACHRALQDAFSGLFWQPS

As to `Cc1cc(C(=O)N2CCC(Nc3ncc(Cl)c(-c4c[nH]c5ccccc45)n3)CC2)ccc1N` [Compound 59, (4-amino-3-methylphenyl)(4-(5-chloro-4-(1H-indol-3-yl)pyrimidin-2-ylamino)piperidin-1-yl)methanone], the pIC50 was over 7.00 at CDK7 and over 6.30 in the test on Jurkat (Homo sapiens, Jurkat, 72 h).

Turning to `CN(C/C=C/C(=O)Nc1ccc(CN2CCC(Nc3ncc(Cl)c(-c4c[nH]c5ccccc45)n3)CC2)cc1)CC(=O)O` [Compound 148, 2-[[(E)-4-[4-[[4-[[5-chloro-4-(1H-indol-3-yl)pyrimidin-2-yl]amino]-1-piperidyl]methyl]anilino]-4-oxo-but-2-enyl]-methyl-amino]acetic acid], the pIC50 at CDK7 is over 7.00; in the test with Jurkat (Homo sapiens, Jurkat, 72 h) it was 5.30 to 6.30.

For `N#Cc1cnc(N[C@@H]2CCN(C(=O)c3ccc(N)cc3)C2)nc1-c1c[nH]c2ccccc12` [Compound 37, 2-((R)-1-(4-aminobenzoyl)pyrrolidin-3-ylamino)-4-(1H-indol-3-yl)pyrimidine-5-carbonitrile], the pIC50 was over 7.00 at CDK7 and 5.30 to 6.30 in the test on Jurkat (Homo sapiens, Jurkat, 72 h).

Consider `C=CC(=O)Nc1ccc(CNC(=O)[C@@H]2CNC[C@H](Nc3ncc(Cl)c(-c4c[nH]c5ccccc45)n3)C2)cc1` (relative stereo) [Compound 152, (+/−cis)-N-(4-acrylamidobenzyl)-5-((5-chloro-4-(1H-indol-3-yl)pyrimidin-2-yl)amino)piperidine-3-carboxamide], for which the values for the pIC50 at CDK7 and in the test on Jurkat were over 7.00 and 5.30 to 6.30, respectively.

Regarding `NCC(=O)Nc1cccc(Nc2ncc(Cl)c(-c3c[nH]c4ccccc34)n2)c1` [Compound 307, 2-amino-N-(3-(5-chloro-4-(1H-indol-3-yl)pyrimidin-2-ylamino)phenyl)acetamide.TFA], the pIC50 is over 7.00 at CDK7 and 5.30 to 6.30 in the test on Jurkat (Homo sapiens, Jurkat, 72 h).

Take `CN(C)C/C=C/C(=O)Nc1ccc(C(=O)N[C@@H]2CC[C@H](Nc3ncc(Cl)c(-c4cc[nH]n4)n3)C2)cc1.CN(C)C/C=C/C(=O)Nc1ccc(C(=O)N[C@H]2CC[C@@H](Nc3ncc(Cl)c(-c4cc[nH]n4)n3)C2)cc1` (mixture of isomers) [Compound 124, N-((1R,3S)-3-((5-chloro-4-(1H-pyrazol-3-yl)pyrimidin-2-yl)amino)cyclopentyl)-4-((E)-4-(dimethylamino)but-2-enamido)benzamide and N-((1S,3R)-3-((5-chloro-4-(1H-pyrazol-3-yl)pyrimidin-2-yl)amino)cyclopentyl)-4-((E)-4-(dimethylamino)but-2-enamido)benzamide]: the pIC50 is under 6.00 on CDK7 and under 5.30 in the test with Jurkat.

In the case of `Cc1noc(C)c1-c1nc(NC2CCN(C(=O)c3ccc(NC(=O)/C=C/CN(C)C)cc3)CC2)ncc1Cl` [Compound 121, (E)-N-(4-(4-((5-chloro-4-(3,5-dimethylisoxazol-4-yl)pyrimidin-2-yl)amino)piperidine-1-carbonyl)phenyl)-4-(dimethylamino)but-2-enamide], the pIC50 at CDK7 was under 6.00; in the test on Jurkat (Homo sapiens, Jurkat, 72 h) it was 5.30 to 6.30.

Regarding `Cc1noc(C)c1-c1nc(N[C@H]2CC[C@@H](NC(=O)c3ccc(NC(=O)/C=C/CN(C)C)cc3)C2)ncc1Cl` (racemic) [Compound 122, N-((1R,3S)-3-((5-chloro-4-(3,5-dimethylisoxazol-4-yl)pyrimidin-2-yl)amino)cyclopentyl)-4-((E)-4-(dimethylamino)but-2-enamido)benzamide and N-((1S,3R)-3-((5-chloro-4-(3,5-dimethylisoxazol-4-yl)pyrimidin-2-yl)amino)cyclopentyl)-4-((E)-4-(dimethylamino)but-2-enamido)benzamide], the pIC50 is 6.00 to 7.00 at CDK7 and over 6.30 in the test on Jurkat (Homo sapiens, Jurkat, 72 h).

For `Cc1nc(C)c(-c2nc(NC3CCN(C(=O)c4ccc(NC(=O)/C=C/CN(C)C)cc4)CC3)ncc2Cl)s1` [Compound 119, (E)-N-(4-(4-((5-chloro-4-(2,4-dimethylthiazol-5-yl)pyrimidin-2-yl)amino)piperidine-1-carbonyl)phenyl)-4-(dimethylamino)but-2-enamide], the pIC50 at CDK7 is 6.00 to 7.00; in the test on Jurkat (Homo sapiens, Jurkat, 72 h), 5.30 to 6.30.

For the compound `CN(C)CC=CC(=O)Nc1ccc(C(=O)NC2CNCC(Nc3ncc(Cl)c(-c4c[nH]c5ccccc45)n3)C2)cc1` (racemic) [Compound 149, N-((+/−cis)-5-((5-chloro-4-(1H-indol-3-yl)pyrimidin-2-yl)amino)piperidin-3-yl)-4-((E)-4-(dimethylamino)but-2-enamido)benzamide], the pIC50 on CDK7 is over 7.00; with Jurkat (Homo sapiens, Jurkat, 72 h) it was 5.30 to 6.30.

Consider `O=C(/C=C/CNC(=O)C(F)(F)F)Nc1ccc(CN2CCC(Nc3ncc(Cl)c(-c4c[nH]c5ccccc45)n3)CC2)cc1` [Compound 156, (E)-N-(4-((4-((5-chloro-4-(1H-indol-3-yl)pyrimidin-2-yl)amino)piperidin-1-yl)methyl)phenyl)-4-(2,2,2-trifluoroacetamido)but-2-enamide], for which the pIC50 was 6.00 to 7.00 at CDK7 and 5.30 to 6.30 in the test on Jurkat (Homo sapiens, Jurkat, 72 h).

Consider `CN(C)C/C=C/C(=O)Nc1ccc(CN2CCC(Nc3ncc(Cl)c(-c4c[nH]c5ccccc45)n3)CC2)cc1` [Compound 106, (E)-N-(4-((4-((5-chloro-4-(1H-indol-3-yl)pyrimidin-2-yl)amino)piperidin-1-yl)methyl)phenyl)-4-(dimethylamino)but-2-enamide], for which the pIC50 on CDK7 was over 7.00; in the test on Jurkat (Homo sapiens, Jurkat, 72 h), over 6.30.

With `Nc1ccc(C(=O)N2CCC(Nc3ncc(Cl)c(-c4c[nH]c5ccccc45)n3)CC2)cc1F` [Compound 55, (4-amino-3-fluorophenyl)(4-(5-chloro-4-(1H-indol-3-yl)pyrimidin-2-ylamino)piperidin-1-yl)methanone], the pIC50 on CDK7 is over 7.00; in the test with Jurkat (Homo sapiens, Jurkat, 72 h), 5.30 to 6.30.

Consider `Nc1ccc(C(=O)N2[C@@H]3CC[C@H]2C[C@@H](Nc2ncc(Cl)c(-c4c[nH]c5ccccc45)n2)C3)cc1` [Compound 302, (4-aminophenyl)((1R,3R,5S)-3-(5-chloro-4-(1H-indol-3-yl)pyrimidin-2-ylamino)-8-aza-bicyclo[3.2.1]octan-8-yl)methanone], for which the pIC50 was under 6.00 at CDK7 and 5.30 to 6.30 in the test on Jurkat (Homo sapiens, Jurkat, 72 h).

As to `CN1CCN(C/C=C/C(=O)Nc2ccc(C(=O)N3CC[C@@H](Nc4ncc(C#N)c(-c5c[nH]c6ccccc56)n4)C3)cc2)CC1` [Compound 110, (E)-N-(4-((R)-3-(5-cyano-4-(1H-indol-3-yl)pyrimidin-2-ylamino)pyrrolidine-1-carbonyl)phenyl)-4-(4-methylpiperazin-1-yl)but-2-enamide], the pIC50 at CDK7 is over 7.00; with Jurkat (Homo sapiens, Jurkat, 72 h), over 6.30.

Regarding `CC(C)(CNC(=O)c1ccc(NC(=O)/C=C/CO)cc1)CNc1ncc(Cl)c(-c2c[nH]c3ccccc23)n1` [Compound 132, (E)-N-(3-(5-chloro-4-(1H-indol-3-yl)pyrimidin-2-ylamino)-2,2-dimethylpropyl)-4-(4-hydroxybut-2-enamido)benzamide], the pIC50 was under 6.00 at CDK7 and under 5.30 in the test with Jurkat (Homo sapiens, Jurkat, 72 h).

As for `Cc1[nH]c2ccccc2c1-c1nc(N[C@@H]2CC[C@H](NC(=O)c3ccc(NC(=O)/C=C/CN(C)C)cc3)C2)ncc1Cl` (racemic) [Compound 126, N-((1R,3S)-3-((5-chloro-4-(2-methyl-1H-indol-3-yl)pyrimidin-2-yl)amino)cyclopentyl)-4-((E)-4-(dimethylamino)but-2-enamido)benzamide and N-((1S,3R)-3-((5-chloro-4-(2-methyl-1H-indol-3-yl)pyrimidin-2-yl)amino)cyclopentyl)-4-((E)-4-(dimethylamino)but-2-enamido)benzamide], the pIC50 at CDK7 was over 7.00; with Jurkat (Homo sapiens, Jurkat, 72 h), over 6.30.
